Measured values taken from ChEMBL document CHEMBL5149975, “Freshwater Fungi as a Source of Chemical Diversity: A Review” (J Nat Prod, 2021).
≈ marks a conversion by molar mass, not a printed value.

Columns and labels:
Staphylococcus aureus [1] = test: Antimicrobial activity against Staphylococcus aureus; type: functional
[2] = test system: Mycolicibacterium smegmatis; test: Antimicrobial activity against Mycobacterium smegmatis; type: functional
Staphylococcus aureus [3] = test: Antibacterial activity against Staphylococcus aureus ATCC 6538 inhibition of zones at 50 ug per disk by standard disk assay; type: functional; conditions: read-out: IZ
Staphylococcus aureus [4] = test: Antibacterial activity against Staphylococcus aureus ATCC25923 measured after 18 hrs by agar dilution method; type: functional
Candida albicans = test: Antifungal activity against clinical isolate Candida albicans measured after 24 hrs by agar dilution method; type: functional
[5] = Antioxidant activity of the compound by DPPH assay; type: functional
[6] = target: T1, Tyrosine-protein phosphatase non-receptor type 1 (Homo sapiens, UniProt P18031); test: Inhibition of PTP1B (unknown origin)
T1 sequence (P18031 whole entry): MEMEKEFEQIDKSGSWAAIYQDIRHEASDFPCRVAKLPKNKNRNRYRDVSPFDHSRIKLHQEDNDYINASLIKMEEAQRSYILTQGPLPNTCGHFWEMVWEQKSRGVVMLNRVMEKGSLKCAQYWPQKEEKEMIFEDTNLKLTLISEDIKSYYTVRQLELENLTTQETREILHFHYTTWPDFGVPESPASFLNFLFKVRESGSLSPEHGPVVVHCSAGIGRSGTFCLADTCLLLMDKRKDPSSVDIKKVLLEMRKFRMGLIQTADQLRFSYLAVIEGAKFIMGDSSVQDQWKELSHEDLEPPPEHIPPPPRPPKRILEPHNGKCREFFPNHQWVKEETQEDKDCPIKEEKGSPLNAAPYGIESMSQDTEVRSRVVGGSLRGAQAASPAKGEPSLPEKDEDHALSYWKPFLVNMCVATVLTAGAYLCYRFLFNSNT

[7] = target: T2, Tyrosine-protein phosphatase non-receptor type 1 (Homo sapiens) (UniProt P18031); test: Inhibition of PTP1B (unknown origin) at 15.7 uM relative control
T2 sequence (whole entry): T1 sequence (P18031 whole entry)

[8] = target: T1, Tyrosine-protein phosphatase non-receptor type 1; test: Inhibition of human recombinant PTP1B (1 to 322 residues) expressed in Escherichia coli using pNPP as substrate incubated for 10 mins followed by substrate addition and measured after 30 mins by microplate reader based analysis
Pseudomonas aeruginosa = test: Antimicrobial activity against Pseudomonas aeruginosa; type: functional
[9] = target: T2, Tyrosine-protein phosphatase non-receptor type 1 (Homo sapiens); test: Inhibition of human recombinant PTP1B (1 to 322 residues) expressed in Escherichia coli using pNPP as substrate at 36 uM incubated for 10 mins followed by substrate addition and measured after 30 mins by microplate reader based analysis relative to control; conditions: time 40.0 min
Bacillus cereus = test: Antibacterial activity against Bacillus cereus by microtiter plate method; type: functional
Vibrio anguillarum = test: Antibacterial activity against Vibrio anguillarum by microtiter plate method; type: functional
Vibrio parahaemolyticus = test: Antibacterial activity against Vibrio parahaemolyticus by microtiter plate method; type: functional

O=C1C=C2OC3(O)CC(=O)c4c(O)cccc4C3=C2c2cccc(O)c21 (stereo not drawn)
MIC (Staphylococcus aureus [1]): 86 µM
MIC [2]: 172 µM (≈ 59.9 µg/mL)

COc1ccc(OC)c2c1OCc1cc(C)cc(O)c1C2=O
zone of inhibition at 50 µg/disc (Staphylococcus aureus [3]): 11 mm

C=C1CCC[C@@]2(C)C[C@H](O)[C@H](C(C)(C)O)C[C@@]12O
MIC (Staphylococcus aureus [4]): > 128 µg/mL
MIC (Candida albicans): > 128 µg/mL

O=c1c(O)c(-c2ccc(O)c(O)c2)oc2cc(O)cc(O)c12 [QUERCETIN]
IC50 [5]: 5.7 µM

COC(=O)[C@@]12Oc3ccc(Oc4cccc5c4C(=O)C4=C(O)C[C@H](C)[C@H](O)[C@]4(C(=O)OC)O5)c(O)c3C(=O)C1=C(O)C[C@H](C)[C@H]2O
IC50 [6]: 6 µM

COC(=O)[C@@]12Oc3ccc(-c4ccc5c(c4O)C(=O)C4=C(O)C[C@H](C)[C@@H](O)[C@]4(C(=O)OC)O5)c(O)c3C(=O)C1=C(O)C[C@H](C)[C@H]2O
inhibition [7]: 40%

O=C1c2c(O)cc(CO)cc2COc2c(O)c(O)cc(O)c21
zone of inhibition at 50 µg/disc (Staphylococcus aureus [3]): 11 mm

C=C1CCC[C@]2(C)C1C[C@@H](C(C)(C)O)C[C@@H]2O (stereo partly drawn)
MIC (Staphylococcus aureus [4]): > 128 µg/mL
MIC (Candida albicans): > 128 µg/mL

COc1cc(O)c(OC)c2c1C(=O)c1c(O)cc(C)cc1CO2
zone of inhibition at 50 µg/disc (Staphylococcus aureus [3]): 11 mm

COc1cc(C)c(Oc2cc(C)cc(O)c2)c(O)c1 [CYPERIN]
IC50 [8]: 17 µM

Cc1cc(O)c2c(c1)COc1c(O)ccc(O)c1C2=O
zone of inhibition at 50 µg/disc (Staphylococcus aureus [3]): 11 mm

C=C1CCC[C@@]2(C)CC(O)[C@H](C(C)(C)O)C[C@]12O (stereo partly drawn)
MIC (Staphylococcus aureus [4]): > 128 µg/mL
MIC (Candida albicans): > 128 µg/mL

COc1cc(O)c2c(c1C)[C@H](C)C(=O)OC2=O
MIC (Staphylococcus aureus [1]): 33 µg/mL

COc1cc(C)c(Oc2cc(C)cc(O)c2O)c(O)c1
IC50 [8]: 13 µM

COC(=O)[C@H]1C[C@@H](C)[C@H]2[C@@H](C=C[C@H](C)[C@@H]2/C=C/C=C/C(=O)O)[C@@H]1C
IC50 [5]: 2.8 µM

CC1(C)C=Cc2c(ccc3c2N[C@]2(C[C@@]45NC(=O)[C@]6(CCCN6C4=O)CC5C2(C)C)C3=O)O1 (stereo partly drawn)
MIC (Pseudomonas aeruginosa): 0.8 µM (≈ 0.358 µg/mL)

COc1cc(O)cc(C)c1Oc1cc(C)cc(O)c1O
inhibition [9]: 32%

COC(=O)[C@@]12Oc3ccc(-c4ccc5c(c4O)C(=O)C4=C(O)C[C@H](C)[C@H](O)[C@]4(C(=O)OC)O5)c(O)c3C(=O)C1=C(O)C[C@H](C)[C@H]2O
IC50 [6]: 9.6 µM

C=C1CCC[C@@]2(C)CC[C@H](C(C)(C)O)C[C@]12O
MIC (Staphylococcus aureus [4]): > 128 µg/mL
MIC (Candida albicans): > 128 µg/mL

COC(=O)[C@@]12Oc3c(-c4ccc5c(c4O)C(=O)C4=C(O)C[C@H](C)[C@H](O)[C@]4(C(=O)OC)O5)ccc(O)c3C(=O)C1=C(O)C[C@H](C)[C@H]2O
IC50 [6]: 5.9 µM

C=C1CCC[C@@]2(C)CC[C@H](C(C)(C)O)CC12 (stereo partly drawn)
MIC (Staphylococcus aureus [4]): > 128 µg/mL
MIC (Candida albicans): > 128 µg/mL

COc1ccc(OC)c2c1OCc1cc(CO)cc(O)c1C2=O
zone of inhibition at 50 µg/disc (Staphylococcus aureus [3]): 11 mm

C=C1C[C@@H](O)C[C@@]2(C)CC[C@H](C(C)(C)O)CC12 (stereo partly drawn)
MIC (Staphylococcus aureus [4]): > 128 µg/mL
MIC (Candida albicans): > 128 µg/mL

O=c1[nH]c2ccccc2c(-c2ccccc2)c1O
MIC (Bacillus cereus): 25 µM (≈ 5.93 µg/mL)
MIC (Vibrio anguillarum): 25 µM (≈ 5.93 µg/mL)
MIC (Vibrio parahaemolyticus): 25 µM (≈ 5.93 µg/mL)
